Data published in PMC12503909, “C1′‐Branched Acyclic Nucleoside Phosphonates as Inhibitors of Plasmodium Falciparum 6‐Oxopurine Phosphoribosyltransferase” (Chemmedchem, 2025).

Tests used:
HeLa = experiment: Cytotoxicity of the prodrug in human cells (CellTiter-Glo 2.0), HeLa; format: cell-based; conditions: 10 µM, versus untreated control; mean ± SD
Procedure: (§1) Compound cytotoxicity was evaluated in nontumor human dermal fibroblasts (NHDF), CCRF‐CEM, HL‐60, HeLa, and HepG2 cells. All cell lines were obtained from ATCC (Manassas, VA, USA). The cytotoxicity was assayed using CellTiter‐Glo 2.0 detection reagent (Promega, Madison, USA) according to the manufacturer's protocol. The concentration of prodrug used in this assay was 10 μM. This concentration was chosen as it would more accurately reflect the expected concentration in an in vitro assessment.

CCRF-CEM = experiment: Cytotoxicity of the prodrug in human cells (CellTiter-Glo 2.0), CCRF-CEM; format: cell-based; conditions: 10 µM, versus untreated control; mean ± SD
Procedure: as §1

HepG2 = experiment: Cytotoxicity of the prodrug in human cells (CellTiter-Glo 2.0), HepG2; format: cell-based; conditions: 10 µM, versus untreated control; mean ± SD
Procedure: as §1

P. falciparum W2 = experiment: In vitro antimalarial activity, 3H-hypoxanthine growth inhibition assay, W2 line; format: cell-based, Plasmodium falciparum; conditions: 96 h, Pf infected erythrocytes, W2 strain resistant to chloroquine, mean ± SD of three independent experiments
Procedure: (§2) The IC50 values were determined as previously described.^[ [32] ^] P. falciparum D6 (Sierra‐Leone) laboratory line, sensitive to most antimalarial drugs, and W2 (Indochina) line, resistant to chloroquine and pyrimethamine, were maintained as previously described^[ [33] ^] in medium consisted of 10.4 g L^−1 RPMI‐1640‐LPLF powder (Gibco BRL), 5.97 g L^−1 HEPES buffer (MP Biomedicals, USA), 2.0 g L^−1 d‐glucose (BDH chemicals, Australia), 0.05 g L^−1 hypoxanthine (Sigma, USA) and 40 mg L^−1 gentamycin (Pfizer, Australia), supplemented with 0.21% NaHCO3 and 10% human plasma prior to use. Red blood cells O (Rh+) type were obtained from the Australian Red Cross Blood Service and added to 4% haematocrit. Cultures were routinely synchronized using D‐sorbitol.^[ [34] ^] To evaluate the antimalarial activity of the ANPs, the ^3H‐hypoxanthine growth inhibition assay was utilized, where the uptake of ^3H‐hypoxanthine by malaria parasites is used as a surrogate marker for parasite growth. For these assays, stock solutions of the tested compounds were made to concentrations of 20–40 mM in DMSO or water and subsequently diluted in hypoxanthine‐free complete media prior to assay. The assays (in 96‐well plate format) were initiated when most parasites (> 90%) were at the early trophozoite (ring) stage. Parasite cultures (100 μL per well) at 0.5% initial parasitemia and 2% hematocrit in hypoxanthine‐free RPMI1640‐LPLF medium were exposed to ten twofold serial dilutions of the compounds and chloroquine (reference drug) for 96 h, with ^3H‐hypoxanthine (0.2 μCi well^−1) added ≈48 h after the beginning of the experiment.
(§3) The ^3H‐hypoxanthine incorporation data were analyzed, and sigmoidal growth inhibition curves were produced by nonlinear regression analysis of the ^3H‐hypoxanthine incorporation data versus log‐transformed concentrations of the compounds using Graphpad Prism V5.0 software (GraphPad Software Inc. USA). […] The IC50 values were based on three independent experiments, with mean ± SD calculated.

HL-60 = experiment: Cytotoxicity of the prodrug in human cells (CellTiter-Glo 2.0), HL-60; format: cell-based; conditions: 10 µM, versus untreated control; mean ± SD
Procedure: as §1

NHDF = experiment: Cytotoxicity of the prodrug in human cells (CellTiter-Glo 2.0), NHDF; format: cell-based; conditions: 10 µM, versus untreated control; mean ± SD
Procedure: as §1

P. falciparum D6 = experiment: In vitro antimalarial activity, 3H-hypoxanthine growth inhibition assay, D6 line; format: cell-based, Plasmodium falciparum; conditions: 96 h, Pf infected erythrocytes, D6 strain sensitive to chloroquine, mean ± SD of three independent experiments
Procedure: as §2, §3

[1] = Plasmodium falciparum, W2, Erythrocyte
[2] = Plasmodium falciparum, D6, Erythrocyte

SMILES	Viability HeLa (HeLa) [% control]	Viability CCRF-CEM (CCRF-CEM) [% control]	Viability HepG2 (HepG2) [% control]	IC50 (P. falciparum W2; [1]) [µM]	Viability HL-60 (HL-60) [% control]	Viability NHDF (NHDF) [% control]	IC50 (P. falciparum D6; [2]) [µM]	IC50 (P. falciparum W2) [µM]	IC50 (P. falciparum D6) [µM]
CCOC(=O)[C@H](Cc1ccccc1)NP(=O)(CCOCC(OCCO)n1cnc2c(=O)[nH]cnc21)N[C@@H](Cc1ccccc1)C(=O)OCC (stereo partly drawn) [21c, Bis‐(L‐phenylalaninate ethyl ester) prodrug of (2‐(2‐(2‐hydroxyethoxy)‐2‐(hypoxanthin‐9‐yl)ethoxy)ethyl) phosphonic acid]	97 ± 2	100 ± 2	97 ± 2	14 ± 2	104 ± 2	102 ± 6	41 ± 5	–	–
CCOC(=O)[C@H](Cc1ccccc1)NP(=O)(CCOCC(OCCOCP(=O)(N[C@@H](Cc1ccccc1)C(=O)OCC)N[C@@H](Cc1ccccc1)C(=O)OCC)n1cnc2c(=O)[nH]cnc21)N[C@@H](Cc1ccccc1)C(=O)OCC (stereo partly drawn) [19a, Tetra‐(L‐phenylalaninate ethyl ester) prodrug of (2‐(2‐(hypoxanthin‐9‐yl)‐2‐(2‐(phosphonatomethoxy)ethoxy)ethoxy)ethyl)phosphonic acid]	105 ± 1	106 ± 1	116 ± 1	3	112 ± 1	114 ± 5	2	3.4 ± 1.1	2.1 ± 0.2
CCOC(=O)[C@H](Cc1ccccc1)NP(=O)(COCCC(OCCCO)n1ncc2c(=O)[nH]cnc21)N[C@@H](Cc1ccccc1)C(=O)OCC (stereo partly drawn) [21g, Bis‐(L‐phenylalaninateethyl ester) prodrug of ((3‐(3‐hydroxypropoxy)‐3‐(4‐oxo‐4,5‐dihydro‐1H‐pyrazolo[3,4‐d]pyrimidin‐1‐yl)propoxy)methyl) phosphonic acid]	106 ± 2	105 ± 2	111 ± 6	15 ± 2	107 ± 2	114 ± 3	11 ± 1	–	–
CCOC(=O)[C@H](Cc1ccccc1)NP(=O)(COCC(OCCO)n1cnc2c(=O)[nH]cnc21)N[C@@H](Cc1ccccc1)C(=O)OCC (stereo partly drawn) [21a, Bis‐(L‐phenylalaninate ethyl ester) prodrug of ((2‐(2‐hydroxyethoxy)‐2‐(hypoxanthin‐9‐yl)ethoxy)methyl)phosphonic acid]	97 ± 2	101 ± 2	98 ± 3	71 ± 1	103 ± 0	104 ± 8	34 ± 6	–	–
